System: Plasmodium falciparum
Assay: GSK_TCMDC: Inhibition of Plasmodium falciparum 3D7 in whole erythrocytes, using parasite LDH activity as an index of growth.
Type: functional, organism-based
Settings: Plasmodium falciparum, 3D7

Compound | XC50
CCN(CC)CCN(Cc1ccc(-c2ccc(C(F)(F)F)cc2)cc1)C(=O)Cn1cc(Cc2cnn(C)c2)c(=O)nc1/C=C/c1ccc(F)cc1 | 1.06 µM
CCOC(=O)c1cn(CC)c2cc(N3CCCCCC3)c(F)cc2c1=O | 0.413 µM
CC1(C)CNCc2cc(NC(=O)/C=C/c3ccc(Cl)cc3)ccc21 | 1.18 µM
COc1cc(F)c2ncc(Cl)c([C@@H](O)CN3CCC(NCc4cc5c(cn4)OCCO5)CC3)c2c1 | 0.102 µM
Cc1ccc(OCCCCONC(=O)c2ccccc2)cc1 | 0.145 µM
CCCOc1ccc(-c2nonc2NC(=O)c2cccc(OC)c2)cc1OCCC | 1.15 µM
COc1ccc(N2CCN(C(CNC(=O)C3CCCCC3)c3ccc4c(c3)OCO4)CC2)cc1 (stereo not drawn) | 0.566 µM
CN(C)c1ccc(-c2ccc(C(=O)NC3CCN(Cc4ccc5c(c4)OCCO5)CC3)s2)cc1 | 1.12 µM
Cc1ccc(NC(=S)N2CCCN(CCCCCNC(=O)/C=C/c3ccc(Cl)c(Cl)c3)CC2)cc1Cl | 0.916 µM
O=C(CN1CCN(C(=O)c2ccco2)CC1)Nc1ccccc1Br | 0.558 µM
O=C(/C=C/c1ccc(-c2nc3ccc(Cl)cc3[nH]2)cc1)NCc1cccc(F)c1 | 0.64 µM
CCN1CCN(c2cc(C)c3cc(NC(=O)c4cccc(C(F)(F)F)c4)ccc3n2)CC1 | 0.568 µM
COc1ccc2nc(/N=C3\NC(c4ccccn4)(c4ccccn4)C(=O)N3C)[nH]c2c1 | 0.586 µM
CCN(CC)c1ccc(-c2nc3cc(Cl)cnc3[nH]2)cc1 | 1.13 µM
CC(Oc1ccc(Cl)cc1)C(=O)Nc1cc(C(F)(F)F)ccc1N1CCOCC1 (stereo not drawn) | 0.532 µM
NC1=NC2(CCCCC2)N(OCCCCCCc2ccccc2)C(N)=N1 | 0.347 µM
CO/C(=C\C=C\c1cc2cc(Cl)c(Cl)cc2[nH]1)C(=O)NCCCN1CCN(c2cccc(Cl)c2)CC1 | 0.73 µM
COc1ccc2nccc(N3CCC(NCCNCc4ccc5c(n4)NC(=O)CO5)C3)c2n1 (stereo not drawn) | 0.862 µM
N#Cc1ccc2c(c1)CN(CCC1CCC(NC(=O)c3cc4cc(OC(F)(F)F)ccc4[nH]3)CC1)CC2 (stereo not drawn) | 0.777 µM

Compound | XC50
COc1ccccc1N1CCN(C(C(=O)NCc2ccc3c(c2)OCO3)c2ccc(C)cc2)CC1 (stereo not drawn) | 0.985 µM
COc1ccc(NC(=O)/C=C/c2ccc(Cl)c(C(F)(F)F)c2)cc1OCCN(C(C)C)C(C)C | 0.626 µM
O=C(Nc1ccc(OC2CCN(Cc3ccc(F)cc3)C2)c(Cl)c1)c1ccco1 (stereo not drawn) | 0.195 µM
O=C(N[C@@H](CC1CCCCC1)C(=O)NC1CCCCCC1)c1ccc(O)c(-c2ccc(Cl)c(Cl)c2)c1 | 0.102 µM
COc1cc(-n2c(CN3CCCC3)nc3cc(-c4ccc(Cl)cc4)sc3c2=O)ccc1OCCN1CCCC1 | 1.04 µM
COC(=O)c1sc(-c2ccc(Cl)cc2)cc1N(CCCN1CCC(N2CCCCC2)CC1)S(=O)(=O)c1ccc(C)cc1 | 0.744 µM
CC(=O)c1ccc(N2CCN(C(=O)Nc3ccc(Cl)cc3)CC2)cc1 | 0.979 µM
O=C(NC1CCN(c2ccnc3cc(Cl)ccc23)C1)c1ccc(F)cc1 (stereo not drawn) | 0.187 µM
CN1CCN(CCCN(Cc2cccc(-c3ccc(CNC4CCCC4)cc3)c2)C(=O)CCC2CCCC2)CC1 | 0.761 µM
O=S(=O)(c1ccc(NC(S)=NN=Cc2ccccn2)cc1)N1CCCCC1 | 0.72 µM
CC(C)(C)CC(=O)Nc1ccc(Nc2cc(-c3ccncc3)cc3ncc(C(N)=O)cc23)cc1 | 0.7 µM
COc1ccc(NS(=O)(=O)c2ccccc2Br)cc1N1CCN(C)CC1 | 0.967 µM
CC(=O)c1ccccc1OCCSc1nnc(Cc2cccs2)n1C1CCCCC1 | 0.919 µM
CS(=O)(=O)c1ccc(CNCc2cccc(-c3cccc(-c4nc5cc(F)ccc5[nH]4)c3)c2)cc1 | 0.559 µM
CCCc1cc([C@@H](O)[C@@H]2C[C@@H]3CCN2C[C@@H]3CC)c2ccccc2n1 | 0.433 µM
Cc1ccnc(NC(c2ccc(Cl)c([N+](=O)[O-])c2)c2ccc3cccnc3c2O)c1 (stereo not drawn) | 0.927 µM
CS(=O)(=O)c1cccc2sc(N3CCN(C(=O)c4ccc([N+](=O)[O-])o4)CC3)nc12 | 1.24 µM
NC(=O)c1cccc(Nc2nccc(Nc3ccc(Oc4cccc5ccccc45)cc3)n2)c1 | 1.15 µM
O=C(NCc1ccc(Cl)c(Cl)c1)c1cccc(C2CCCN(Cc3ccc4[nH]cnc4c3)C2)c1 (stereo not drawn) | 0.932 µM

From ChEMBL document CHEMBL1157539, “Thousands of chemical starting points for antimalarial lead identification” (Nature, 2010)
